Values after ≈ are worked out from the molar mass of the structure shown. Active and inactive are the calls of the source. No cut-off for these calls is given here.
Experiments:
[1] = tested on: Staphylococcus aureus; assay: Bactericidal activity against methicillin/ciprofloxacin/clindamycin-resistant Staphylococcus aureus USA100 NRS382 clinical isolate after 24 hrs; type: functional; details: USA100 NRS382, 24 h
[2] = tested on: Staphylococcus aureus; assay: Bactericidal activity against vancomycin-resistant Staphylococcus aureus VRSA10 clinical isolate after 24 hrs; type: functional; details: VRSA10, 24 h
[3] = tested on: Staphylococcus aureus; assay: Bactericidal activity against methicillin-resistant Staphylococcus aureus USA400 NRS123 clinical isolate after 24 hrs; type: functional; details: USA400 NRS123, 24 h
[4] = tested on: Staphylococcus aureus; assay: Bactericidal activity against mupirocin/rifampicin-resistant Staphylococcus aureus RN4220 NRS107 clinical isolate after 24 hrs; type: functional; details: RN4220 NRS107, 24 h
[5] = tested on: Staphylococcus aureus; assay: Bactericidal activity against vancomycin-resistant Staphylococcus aureus VRSA4 clinical isolate after 24 hrs; type: functional; details: VRSA4, 24 h
[6] = tested on: Staphylococcus aureus; assay: Bactericidal activity against methicillin/erythromycin/tetracycline-resistant Staphylococcus aureus USA300 NRS384 clinical isolate after 24 hrs; type: functional; details: USA300 NRS384, 24 h
[7] = tested on: Staphylococcus aureus; assay: Bactericidal activity against methicillin/ciprofloxacin/gentamicin/clindamycin-resistant Staphylococcus aureus USA200 NRS383 clinical isolate after 24 hrs; type: functional; details: USA200 NRS383, 24 h
[8] = tested on: Staphylococcus aureus; assay: Antibacterial activity against methicillin-resistant Staphylococcus aureus 2658 RCMB after 18 to 20 hrs by broth microdilution method; type: functional
[9] = tested on: Staphylococcus aureus; assay: Antibacterial activity against methicillin/ciprofloxacin/gentamicin/clindamycin-resistant Staphylococcus aureus USA200 NRS383 clinical isolate after 18 to 20 hrs by broth microdilution method; type: functional
[10] = Intrinsic clearance in human liver microsomes after 10 to 60 mins in absence of NADPH by LC/MS/MS analysis; type: ADME, microsome; details: read-out: CLH
[11] = tested on: Staphylococcus aureus; assay: Antibacterial activity against methicillin/ciprofloxacin/clindamycin-resistant Staphylococcus aureus USA100 NRS382 clinical isolate after 18 to 20 hrs by broth microdilution method; type: functional
[12] = Half life in human liver microsomes after 10 to 60 mins in absence of NADPH by LC/MS/MS analysis; type: ADME, microsome
[13] = Half life in human liver microsomes after 10 to 60 mins in presence of NADPH by LC/MS/MS analysis; type: ADME, microsome
[14] = Intrinsic clearance in human liver microsomes after 10 to 60 mins in presence of NADPH by LC/MS/MS analysis; type: ADME, microsome; details: read-out: CLH
[15] = tested on: Staphylococcus aureus; assay: Antibacterial activity against methicillin/erythromycin/tetracycline-resistant Staphylococcus aureus USA300 NRS384 clinical isolate after 18 to 20 hrs by broth microdilution method; type: functional
[16] = tested on: Staphylococcus aureus; assay: Antibacterial activity against methicillin-resistant Staphylococcus aureus USA400 NRS123 clinical isolate after 18 to 20 hrs by broth microdilution method; type: functional
[17] = tested on: Staphylococcus aureus; assay: Potentiation of vancomycin-mediated antibacterial activity against vancomycin-resistant Staphylococcus aureus VRSA10 clinical isolate assessed as vancomycin MIC at 0.5 times MIC preincubated for 30 mins followed by vancomycin addition measured after 20 to 22 hrs (reference value: 512 ug/ml); type: functional
[18] = tested on: Staphylococcus aureus; assay: Antibacterial activity against mupirocin/rifampicin-resistant Staphylococcus aureus RN4220 NRS107 clinical isolate after 18 to 20 hrs by broth microdilution method; type: functional
[19] = tested on: HaCaT; assay: Cytotoxicity against human HaCaT cells assessed as decrease in cell viability up to 8 ug/ml after 2 hrs by MTS assay; type: cell-based
[20] = tested on: J774; assay: Cytotoxicity against mouse J774 cells assessed as decrease in cell viability at 8 ug/ml after 2 hrs by MTS assay; type: cell-based; details: j774, 2 h
[21] = tested on: Staphylococcus aureus; assay: Potentiation of vancomycin-mediated antibacterial activity against vancomycin-resistant Staphylococcus aureus VRSA4 clinical isolate assessed as reduction in vancomycin MIC at 0.5 times MIC preincubated for 30 mins followed by vancomycin addition measured after 20 to 22 hrs relative to control; type: functional
[22] = tested on: Staphylococcus aureus; assay: Antibacterial activity against vancomycin-resistant Staphylococcus aureus VRSA4 clinical isolate after 18 to 20 hrs by broth microdilution method; type: functional
[23] = tested on: Staphylococcus aureus; assay: Antibacterial activity against vancomycin-resistant Staphylococcus aureus VRSA10 clinical isolate after 18 to 20 hrs by broth microdilution method; type: functional
[24] = tested on: HaCaT; assay: Cytotoxicity against human HaCaT cells assessed as decrease in cell viability up to 16 ug/ml after 2 hrs by MTS assay; type: cell-based
[25] = tested on: Staphylococcus aureus; assay: Bactericidal activity against methicillin-resistant Staphylococcus aureus USA400 NRS123 clinical isolate assessed as time required to reduce 4 log10CFU of bacterial load at 4 times MIC by time kill assay; type: functional
[26] = tested on: Staphylococcus aureus; assay: Bactericidal activity against methicillin-resistant Staphylococcus aureus USA400 NRS123 clinical isolate assessed as reduction of bacterial load at 4 times MIC after 48 hrs by time kill assay; type: functional
[27] = tested on: HaCaT; assay: Cytotoxicity against human HaCaT cells assessed as decrease in cell viability at 64 ug/ml after 2 hrs by MTS assay; type: cell-based
[28] = tested on: HaCaT; assay: Cytotoxicity against human HaCaT cells assessed as decrease in cell viability up to 32 ug/ml after 2 hrs by MTS assay; type: cell-based
[29] = tested on: Staphylococcus aureus; assay: Bactericidal activity against methicillin-resistant Staphylococcus aureus USA400 NRS123 clinical isolate assessed as time required to reduce 3 log10CFU of bacterial load at 4 times MIC by time kill assay; type: functional

SMILES | MBC [1] [µg/mL] | MBC [2] [µg/mL] | MBC [3] [µg/mL] | MBC [4] [µg/mL] | MBC [5] [µg/mL] | MBC [6] [µg/mL] | MBC [7] [µg/mL] | MIC [8] [µg/mL] | MIC [9] [µg/mL] | microsomal CLint [10] [µL/min/mg] | MIC [11] [µg/mL] | microsomal CLint [14] [µL/min/mg] | MIC [15] [µg/mL] | MIC [16] [µg/mL] | MIC [18] [µg/mL] | MIC [22] [µg/mL] | MIC [23] [µg/mL] | other results
CC(=O)NC[C@H]1CN(c2ccc(N3CCOCC3)c(F)c2)C(=O)O1 [LINEZOLID] | 16 (≈ 47.4 µM) | 16 (≈ 47.4 µM) | 32 (≈ 94.9 µM) | 32 (≈ 94.9 µM) | 8 (≈ 23.7 µM) | 16 (≈ 47.4 µM) | 32 (≈ 94.9 µM) |  |  |  |  |  |  |  |  |  |  | 
CCCOc1ccc(-c2nc(C)c(/C(C)=N/NC(=N)N)s2)cc1 |  |  |  |  |  |  |  | > 30 |  |  |  |  |  |  |  |  |  | 
CCCCOc1ccc(-c2nc(C)c(/C(C)=N/NC(=N)N)s2)cc1 | > 128 |  |  |  |  |  | > 64 | 15.6 (≈ 45.2 µM) | 32 (≈ 92.6 µM) | < 9.6 | 32 (≈ 92.6 µM) | < 9.6 |  |  |  |  |  | half-life [12]: > 4 h; half-life [13]: > 4 h
CCCCCOc1ccc(-c2nc(C)c(/C(C)=N/NC(=N)N)s2)cc1 |  |  |  |  |  |  | > 64 | 1.95 (≈ 5.42 µM) | 64 (≈ 178 µM) |  |  |  |  |  |  |  |  | 
CC(=O)CC(c1ccccc1)c1c(O)c2ccccc2oc1=O (stereo unspecified) [WARFARIN] |  |  |  |  |  |  |  |  |  | < 9.6 |  | < 9.6 |  |  |  |  |  | 
CCCCCCCOc1ccc(-c2nc(C)c(/C(C)=N/NC(=N)N)s2)cc1 | 1 (≈ 2.58 µM) | 2 (≈ 5.16 µM) | 4 (≈ 10.3 µM) | 2 (≈ 5.16 µM) | 2 (≈ 5.16 µM) | 2 (≈ 5.16 µM) | 1 (≈ 2.58 µM) | 0.74 (≈ 1.91 µM) | 0.5 (≈ 1.29 µM) |  | 1 (≈ 2.58 µM) |  | 2 (≈ 5.16 µM) | 2 (≈ 5.16 µM) | 2 (≈ 5.16 µM) | 2 (≈ 5.16 µM) | 2 (≈ 5.16 µM) | MIC [17]: > 128 µg/mL; Activity [19]: Non-Toxic; Activity [20]: Toxic; fold change (FC) [21]: 4
CCCCCCCCOc1ccc(-c2nc(C)c(/C(C)=N/NC(=N)N)s2)cc1 | 2 (≈ 4.98 µM) | 4 (≈ 9.96 µM) | 8 (≈ 19.9 µM) | 8 (≈ 19.9 µM) | 4 (≈ 9.96 µM) | 4 (≈ 9.96 µM) | 2 (≈ 4.98 µM) | 15.6 (≈ 38.9 µM) | 1 (≈ 2.49 µM) |  | 2 (≈ 4.98 µM) |  | 4 (≈ 9.96 µM) | 4 (≈ 9.96 µM) | 4 (≈ 9.96 µM) | 4 (≈ 9.96 µM) | 4 (≈ 9.96 µM) | Activity [24]: Non-Toxic; Time [25]: <=2 hr; Activity [26]: Active
CCCCCCOc1ccc(-c2nc(C)c(/C(C)=N/NC(=N)N)s2)cc1 | 2 (≈ 5.35 µM) | 4 (≈ 10.7 µM) | 16 (≈ 42.8 µM) | 4 (≈ 10.7 µM) | 4 (≈ 10.7 µM) | 8 (≈ 21.4 µM) | 2 (≈ 5.35 µM) | 0.35 (≈ 0.937 µM) | 1 (≈ 2.68 µM) | < 9.6 | 2 (≈ 5.35 µM) | < 9.6 | 4 (≈ 10.7 µM) | 4 (≈ 10.7 µM) | 4 (≈ 10.7 µM) | 4 (≈ 10.7 µM) | 4 (≈ 10.7 µM) | Activity [27]: Toxic; Activity [28]: Non-Toxic; half-life [12]: > 4 h; half-life [13]: > 4 h; Time [29]: 24 h
C/C(=N\NC(=N)N)c1sc(-c2ccc(OCCCC(C)C)cc2)nc1C | 2 (≈ 5.35 µM) | 16 (≈ 42.8 µM) | 32 (≈ 85.7 µM) | 16 (≈ 42.8 µM) | 16 (≈ 42.8 µM) | 32 (≈ 85.7 µM) | 16 (≈ 42.8 µM) | 15.6 (≈ 41.8 µM) | 4 (≈ 10.7 µM) |  | 2 (≈ 5.35 µM) |  | 16 (≈ 42.8 µM) | 16 (≈ 42.8 µM) | 16 (≈ 42.8 µM) | 16 (≈ 42.8 µM) | 16 (≈ 42.8 µM) | 

— ChEMBL document CHEMBL4002577, “Phenylthiazole antibiotics: A metabolism-guided approach to overcome short duration of action” (Eur J Med Chem, 2017)
